One series deals with Haemonchus contortus. The series is described as follows: Method A: Haemonchus contortus L1 larvae, microtitre plate screen. As to conditions: 96 h, read-out: motility inhibition.
The test system of series [1] is microfilaria of Dirofilaria immitis. As to the kind of experiment: Method F: microfilaria of Dirofilaria immitis, survival at 24 hours.
A short description of series [2]: Method G: permeability in the Caco-2/TC7 in vitro model. As to conditions: human, Caco-2, pH 6.5. A general note: Passage across Caco-2 layers is used to estimate intestinal permeability.
Another series has as its system Cooperia oncophora. The series is described as follows: Method C: Cooperia oncophora L1 larvae in vitro. The note with it: 96 h, read-out: inhibition of motility.
Setting [3] is: survival of microfilaria at 24 hours.

These results are taken from patent publication US9249102B2 (priority 2012, dated 2016).

Read-outs that look alike come from different tables or passages of the source.

Turning to `O=C(CO[C@H]1CC[C@H](Nc2ccc([N+](=O)[O-])c(C(F)(F)F)c2)CC1)N1CCN(CC2Cc3ccccc3O2)CC1` (stereo partly drawn) [Compound 24, 1-[4-(2,3-dihydro-1-benzofuran-2-ylmethyl)piperazin-1-yl]-2-[(4-[[4-nitro-3-(trifluoromethyl)phenyl]amino]cyclohexyl)oxy]ethan-1-one], in the series on Haemonchus contortus, the inhibition (as a rule, the drop in the measured response relative to a control, in per cent) at 5 µg/mL was ≥ 90%. For the same compound, the EC50 (as a rule, the concentration at which the effect is half-maximal) in series [1] (setting [3]) is < 1 µg/mL. Besides, the Papp A→B (in general, the apparent permeability from the apical to the basolateral side of a cell layer) at 20 μM in series [2] amounted to 9.7 ×10⁻⁶ cm/s.
Turning to `O=C(CO[C@H]1CC[C@H](Nc2ccc([N+](=O)[O-])c(C(F)(F)F)c2)CC1)N1CCN(C(=O)C2Cc3cc(F)ccc3O2)CC1` (stereo partly drawn) [Compound 80, 1-[4-(5-fluoro-2,3-dihydro-benzofuran-2-carbonyl)-piperazin-1-yl]-2-[4-(4-nitro-3-trifluoromethyl-phenylamino)-cyclohexyloxy]-ethanone], the inhibition at 5 µg/mL in the series with Haemonchus contortus is ≥ 90%. In addition, the Papp A→B at 20 μM in series [2] was determined as 12.1 ×10⁻⁶ cm/s.
Consider `N#Cc1ccc(N[C@H]2CC[C@H](OCC(=O)N3CCN(CC4Cc5cc(Cl)ccc5O4)CC3)CC2)cc1C(F)(F)F` (stereo partly drawn) [Compound 82], for which, in the series with Haemonchus contortus, the inhibition at 5 µg/mL was ≥ 90%. In series [2], the Papp A→B at 20 μM came to 7.1 ×10⁻⁶ cm/s.
Turning to `N#Cc1ccc(N[C@H]2CC[C@H](OCC(=O)N3CCN(CC4Cc5cc(C(F)(F)F)ccc5O4)CC3)CC2)cc1C(F)(F)F` (stereo partly drawn) [Compound 84, 4-([4-[2-oxo-2-(4-[[5-(trifluoromethyl)-2,3-dihydro-1-benzofuran-2-yl]methyl]piperazin-1-yl)ethoxy]cyclohexyl]amino)-2-(trifluoromethyl)benzonitrile], the inhibition at 5 µg/mL with Haemonchus contortus was ≥ 90%. Besides, the concentration for a half-maximal effect (EC50) in series [1] is < 5 µg/mL. The compound also yielded a Papp A→B at 20 μM in series [2] of 5.3 ×10⁻⁶ cm/s.
Take `O=C(COc1ccc(Nc2ccc([N+](=O)[O-])c(C(F)(F)F)c2)cc1)N1CCN(CC2Cc3cc(C(F)(F)F)ccc3O2)CC1` (stereo not drawn) [Compound 187, 2-(4-[[4-nitro-3-(trifluoromethyl)phenyl]amino]phenoxy)-1-(4-[[5-(trifluoromethyl)-2,3-dihydro-1-benzofuran-2-yl]methyl]piperazin-1-yl)ethan-1-one]: the inhibition at 5 µg/mL with Haemonchus contortus was ≥ 90%. For the same compound, in series [1] (setting [3]), the EC50 is < 1 µg/mL. Moreover, in series [2], the Papp A→B at 20 μM was 5.5 ×10⁻⁶ cm/s.
In the case of `O=C(NCCO[C@H]1CC[C@H](Nc2ccc([N+](=O)[O-])c(C(F)(F)F)c2)CC1)C(=O)NCc1cc2cc(F)ccc2o1` [Compound 221, N^1-((5-fluorobenzofuran-2-yl)methyl)-N^2-(2-(4-(4-nitro-3-(trifluoromethyl)phenylamino)cyclohexyloxy)ethyl)oxalamide], the EC50 in series [1] (setting [3]) is < 1 µg/mL. Further, the Papp A→B at 20 μM in series [2] was 7.5 ×10⁻⁶ cm/s.
Take `O=C(NCCO[C@H]1CC[C@H](Nc2ccc([N+](=O)[O-])c(C(F)(F)F)c2)CC1)C(=O)NCc1cc2cc(Cl)ccc2o1` [Compound 222]: the inhibition at 5 µg/mL in the series with Haemonchus contortus is ≥ 90%. Moreover, the half-maximal effective concentration (EC50) in series [1] (setting [3]) was < 0.1 µg/mL. This compound gave a Papp A→B at 20 μM in series [2] of 5 ×10⁻⁶ cm/s.
Consider `Cc1cc(N2CCN(C(=O)CO[C@H]3CC[C@H](Nc4ccc([N+](=O)[O-])c(C(F)(F)F)c4)CC3)CC2)nc2ccc(Cl)cc12` [Compound 270, 1-[4-(6-chloro-4-methyl-2-quinolyl)piperazin-1-yl]-2-[4-[4-nitro-3-(trifluoromethyl)anilino]cyclohexoxy]ethanone], for which the inhibition at 5 µg/mL in the series with Haemonchus contortus and in the series with Cooperia oncophora was ≥ 90% throughout. Moreover, the EC50 in series [1] (setting [3]) is < 1 µg/mL.
Take `N#Cc1ccc(N[C@H]2CC[C@H](OCC(=O)N3CCN(c4ccc5cc(Br)ccc5n4)CC3)CC2)cc1C(F)(F)F` [Compound 271, 2-[(4-[[4-cyano-3-(trifluoromethyl)phenyl]amino]cyclohexyl)oxy]-1-[4-(6-bromoquinolin-2-yl)piperazin-1-yl]ethan-1-one]: the inhibition at 5 µg/mL in the series on Haemonchus contortus and in the series on Cooperia oncophora was ≥ 90% throughout. Also, the EC50 in series [1] (setting [3]) is < 1 µg/mL.
Turning to `O=C(CO[C@H]1CC[C@H](Nc2ccc([N+](=O)[O-])c(C(F)(F)F)c2)CC1)N1CCN(Cc2nc3cc(F)ccc3o2)CC1` [Compound 285, 2-[(4-[[4-nitro-3-(trifluoromethyl)phenyl]amino]cyclohexyl)-oxy]1-[4-(5-fluorobenzoxazol-2-ylmethyl)piperazin-1-yl]ethan-1-one], the inhibition at 5 µg/mL in the series on Haemonchus contortus is ≥ 90%. This compound also yielded a Papp A→B at 20 μM in series [2] of 12 ×10⁻⁶ cm/s.
`N#Cc1ccc(N[C@H]2CC[C@H](OCC(=O)N3CCN(c4ccc5cc(F)ccc5c4F)CC3)CC2)cc1C(F)(F)F` [Compound 290, 4-(4-{2-[4-(1,6-difluoro-naphthalen-2-yl)-piperazin-1-yl]-2-oxo-ethoxy}-cyclohexylamino)-2-trifluoromethyl-benzonitrile]: the inhibition at 5 µg/mL with Haemonchus contortus and in the series on Cooperia oncophora was ≥ 90% each time. The EC50 in series [1] (setting [3]) was < 1 µg/mL.
Turning to `CC(c1ccc2cc(F)ccc2c1)N1CCN(C(=O)CO[C@H]2CC[C@H](Nc3ccc([N+](=O)[O-])c(C(F)(F)F)c3)CC2)CC1` (stereo partly drawn) [Compound 298, 2-[(4-[[4-nitro-3-(trifluoromethyl)phenyl]amino]cyclohexyl)-oxy]1-[4-[1-(6-fluoronaphthalen-2-yl)ethyl]piperazin-1-yl]ethan-1-one], the inhibition at 5 µg/mL in the series with Haemonchus contortus and with Cooperia oncophora was ≥ 90% in each case. For the same compound, the EC50 in series [1] (setting [3]) was < 1 µg/mL.
As for `CC(c1cc2cc(Cl)ccc2o1)N1CCN(C(=O)CO[C@H]2CC[C@H](Nc3ccc([N+](=O)[O-])c(C(F)(F)F)c3)CC2)CC1` (stereo partly drawn) [Compound 300], the inhibition at 5 µg/mL in the series with Haemonchus contortus and in the series with Cooperia oncophora was ≥ 90% each time. Moreover, the EC50 in series [1] (setting [3]) was < 0.1 µg/mL.
Consider `C[C@@H]1CN(CC2Cc3cc(F)ccc3O2)[C@@H](C)CN1C(=O)CO[C@H]1CC[C@H](Nc2ccc([N+](=O)[O-])c(C(F)(F)F)c2)CC1` (stereo partly drawn) [Compound 307, 1-[(2R,5S)-4-(5-fluoro-2,3-dihydro-benzofuran-2-ylmethyl)-2,5-dimethyl-piperazin-1-yl]-2-[4-(4-nitro-3-trifluoromethyl-phenylamino)-cyclohexyloxy]-ethanone], for which the inhibition at 5 µg/mL in the series on Haemonchus contortus and in the series with Cooperia oncophora was ≥ 90% in each case. The concentration for a half-maximal effect (EC50) in series [1] (setting [3]) was < 0.1 µg/mL.
Consider `O=C(CO[C@H]1CC[C@H](Nc2ccc([N+](=O)[O-])c(C(F)(F)F)c2)CC1)N1CCN(CC2Cc3cc(-c4ccc(F)cc4)ccc3O2)CC1` (stereo partly drawn) [Compound 310, 1-{4-[5-(4-fluoro-phenyl)-2,3-dihydro-benzofuran-2-ylmethyl]-piperazin-1-yl}-2-[4-(4-nitro-3-trifluoromethyl-phenylamino)-cyclohexyloxy]-ethanone], for which the inhibition at 5 µg/mL in the series on Haemonchus contortus and in the series on Cooperia oncophora was ≥ 90% in each case. Further, the 50% effective concentration (EC50) in series [1] (setting [3]) is < 0.1 µg/mL.
Regarding `O=C(CO[C@H]1CC[C@H](Nc2ccc([N+](=O)[O-])c(C(F)(F)F)c2)CC1)N1CCN(Cc2cc3ccc(Cl)cc3o2)CC1` [Compound 322, 2-[(4-[[4-nitro-3-(trifluoromethyl)phenyl]amino]cyclohexyl)-oxy]1-[4-(6-chlorobenzofuran-2-ylmethyl)piperazin-1-yl]ethan-1-one], the inhibition at 5 µg/mL in the series with Haemonchus contortus is ≥ 90%. In addition, in series [2], the Papp A→B at 20 μM was 7.9 ×10⁻⁶ cm/s.
For `COc1ccc2oc(CN3CCN(C(=O)CO[C@H]4CC[C@H](Nc5ccc([N+](=O)[O-])c(C(F)(F)F)c5)CC4)CC3)cc2c1` [Compound 323, 2-[(4-[[4-nitro-3-(trifluoromethyl)phenyl]amino]cyclohexyl)-oxy]1-[4-(5-methoxybenzofuran-2-ylmethyl)piperazin-1-yl]ethan-1-one], the inhibition at 5 µg/mL in the series on Haemonchus contortus is ≥ 90%. Besides, in series [2], the Papp A→B at 20 μM is 11.9 ×10⁻⁶ cm/s.
Taken in the same sequence, the figures for `O=C(CO[C@H]1CC[C@H](Nc2ccc([N+](=O)[O-])c(C(F)(F)F)c2)CC1)N1CCN(Cc2ccc3c(C(F)(F)F)cccc3n2)CC1` [Compound 329, 2-[4-(4-nitro-3-trifluoromethyl-phenylamino)-cyclohexyloxy]-1-[4-(5-trifluoromethyl-quinolin-2-ylmethyl)-piperazin-1-yl]-ethanone] were ≥ 90% and 5.6 ×10⁻⁶ cm/s.
With `O=C(CO[C@H]1CC[C@H](Nc2ccc([N+](=O)[O-])c(C(F)(F)F)c2)CC1)N1CCN(Cc2ccc3cc(C(F)(F)F)ccc3n2)CC1` [Compound 332, 2-[4-(4-nitro-3-trifluoromethyl-phenylamino)-cyclohexyloxy]-1-[4-(6-trifluoromethyl-quinolin-2-ylmethyl)-piperazin-1-yl]-ethanone], in the series with Haemonchus contortus, the inhibition at 5 µg/mL was ≥ 90%. This compound also came in with a Papp A→B at 20 μM in series [2] of 6.5 ×10⁻⁶ cm/s.
Turning to `N#Cc1ccc(N[C@H]2CC[C@H](OCC(=O)N3CCN(Cc4ccc5ccc(C(F)(F)F)cc5n4)CC3)CC2)cc1C(F)(F)F` [Compound 333, 4-(4-{2-oxo-2-[4-(7-trifluoromethyl-quinolin-2-ylmethyl)-piperazin-1-yl]-ethoxy}-cyclohexylamino)-2-trifluoromethyl-benzonitrile], the inhibition at 5 µg/mL with Haemonchus contortus is ≥ 90%. Besides, the Papp A→B at 20 μM in series [2] was found to be 8.1 ×10⁻⁶ cm/s.
In the case of `N#Cc1ccc(N[C@H]2CC[C@H](OCC(=O)N3CCN(Cc4ccc5cc(C(F)(F)F)ccc5n4)CC3)CC2)cc1C(F)(F)F` [Compound 334, 4-(4-{2-oxo-2-[4-(6-trifluoromethyl-quinolin-2-ylmethyl)-piperazin-1-yl]-ethoxy}-cyclohexylamino)-2-trifluoromethyl-benzonitrile], the inhibition at 5 µg/mL in the series with Haemonchus contortus is ≥ 90%. This compound returned a Papp A→B at 20 μM in series [2] of 11.9 ×10⁻⁶ cm/s.
As to `N#Cc1ccc(N[C@H]2CC[C@H](OCC(=O)N3CCN(c4cnc5ccccc5c4)CC3)CC2)cc1C(F)(F)F` [Compound 335, 4-[[4-[2-oxo-2-[4-(3-quinolyl)piperazin-1-yl]ethoxy]cyclohexyl]amino]-2-(trifluoromethyl)benzonitrile], the inhibition at 5 µg/mL with Haemonchus contortus is ≥ 90%. This compound also came in with an apparent permeability from apical to basolateral (Papp A→B) at 20 μM in series [2] of 15 ×10⁻⁶ cm/s.
On to `O=C(CO[C@H]1CC[C@H](Nc2ccc([N+](=O)[O-])c(C(F)(F)F)c2)CC1)N1CCN(c2cnc3ccccc3c2)CC1` [Compound 336, 2-[4-[4-nitro-3-(trifluoromethyl)anilino]cyclohexoxy]-1-[4-(3-quinolyl)piperazin-1-yl]ethanone], for which, in the series on Haemonchus contortus, the inhibition at 5 µg/mL is ≥ 90%. Besides, the Papp A→B at 20 μM in series [2] worked out at 7.9 ×10⁻⁶ cm/s.
